pIC50: −log10 of the molar value.

This experiment has as its system AKT protein phosphorylated on serine 473 (P-AKT-S473) in PC3 human prostate carcinoma cells. The experiment is described as follows: pAKT expression in PC3 human prostate carcinoma cells, MSD Multi-spot Biomarker detection (Test A). The format is cell-based. The protocol:
The inhibitory activity of the molecules on AKT phosphorylation is measured using the MSD Multi-spot Biomarker detection technique from Meso Scale Discovery also described below. […] The primary antibody specific for […]) is coated on to an electrode in each well of the 96-well plates of the MSD kit: after the addition of a protein lysate to each well, the signal is visualized by adding a secondary detection antibody labeled with an electrochemiluminescent compound. The procedure followed is the one described in the kit. […] On day 2, the cells are incubated in the presence or absence of the test products for 1 to 2 h at 37° C. in the presence of 5% CO2. The molecules, diluted in dimethyl sulfoxide (DMSO Sigma #D2650), are added from a 20-times concentrated stock solution, the final percentage of DMSO being 0.1%. The molecules are tested either at a single concentration of less than or equal to 10 μM, or at increasing concentrations in a range that can extend from less than 1 nM to 10 μM. After this incubation, the cells are lysed for the preparation of the proteins. […] At this stage, the plates containing the lysates can be frozen at -20° C. or at -80° C. The wells of the 96 well plates of the MSD kit are saturated for 1 h at ambient temperature with the blocking solution of the MSD kit. Four washes are carried out with 150 μl of Tris Wash Buffer of the MSD kit. The lysates previously prepared are transferred into the 96-well multi-spot plates of the MSD kit and incubated for 1 h at ambient temperature, with shaking. Four washes are carried out with 150 μl of Tris Wash Buffer of the MSD kit. 25 μl of the MSD sulfo-tag detection antibody solution are added to the wells and incubated for 1 h at ambient temperature, with shaking. Four washes are carried out with 150 μl of Tris Wash Buffer of the MSD kit. 150 μl of Read Buffer of the MSD kit are added to the wells and the plates are read immediately on the S12400 instrument from Meso Scale Discovery. The instrument measures a signal for each well. Wells without cells and containing the lysis buffer serve to determine the background noise that will be subtracted from all the measurements (min). The wells containing cells in the absence of product and in the presence of 0.1% DMSO are considered to be the 100% signal (max). The percentage inhibition is calculated for each concentration of product tested, according to the following formula: (1-((test-min)/(max-min)))×100. […] Two independent experiments make it possible to calculate the mean of the IC50 values.

[1] abbreviates: Homo sapiens, PC-3, PC3 cells, 1 to 2 h incubation, P-AKT-S473, absolute IC50, mean of two independent experiments.
Where [2] appears, read: PC3 cells, 1 to 2 h incubation, P-AKT-S473, absolute IC50, mean of two independent experiments.

`CCC1CN(c2cc(=O)[nH]c(CC(=O)Nc3ccc(F)cc3)n2)CCO1` (racemic) [Example 14b, (±)-2-[4-(2-ethylmorpholin-4-yl)-6-oxo-1,6-dihydropyrimidin-2-yl]-N-(4-fluorophenyl)acetamide] gave a pIC50 under setting [1] of 6.55. Under setting [1], `O=C(Cc1nc(N2CCOC(CO)C2)cc(=O)[nH]1)N1CCc2c(F)cccc21` (racemic) [Example 27b, (±)-2-[2-(4-fluoro-2,3-dihydroindol-1-yl)-2-oxoethyl]-6-(2-hydroxymethylmorpholin-4-yl)-3H-pyrimidin-4-one] showed a pIC50 of 5.88. For the compound `CC1CN(c2cc(=O)[nH]c(CC(=O)Nc3ccc(F)cc3)n2)CCO1` (single isomer, unassigned; (+)) [Example 2b, (+)-N-(4-fluorophenyl)-2-[4-(2-methylmorpholin-4-yl)-6-oxo-1,6-dihydropyrimidin-2-yl]acetamide], under setting [2], the pIC50 was 8.22. Turning to `CC1Cc2c(Cl)cccc2N1C(=O)Cc1nc(N2CCOCC2)cc(=O)[nH]1` (single isomer, unassigned; (+)) [Example 2c, (+)-2-{2-[4-chloro-2-methyl-2,3-dihydro-1H-indol-1-yl]-2-oxoethyl}-6-(morpholin-4-yl)pyrimidin-4(3H)-one], under setting [2], the pIC50 is 8.30. Same read-out and setting: then `O=C(Cc1nc(N2CCOC(CF)C2)cc(=O)[nH]1)Nc1ccc(F)cc1` (single isomer, unassigned; (+)) [Example 4b, (+)-N-(4-fluorophenyl)-2-[4-(2-fluoromethylmorpholin-4-yl)-6-oxo-1,6-dihydropyrimidin-2-yl]acetamide], with 6.93. Where the note is “Homo sapiens, PC-3”, `Cn1c(CC(=O)Nc2ccc(F)c(Cl)c2)nc(N2CCOC(CF)C2)cc1=O` (single isomer, unassigned; (+)) [Example 5b, (+)-N-(3-chloro-4-fluorophenyl)-2-[4-(2-fluoromethylmorpholin-4-yl)-1-methyl-6-oxo-1,6-dihydropyrimidin-2-yl]acetamide] had a pIC50 of 6.90.

Under setting [2], `O=C(Cc1nc(N2CCOC(CF)C2)cc(=O)[nH]1)N1CCc2c(F)cccc21` (single isomer, unassigned; (+)) [Example 7b, (+)-2-[2-(4-fluoro-2,3-dihydroindol-1-yl)-2-oxoethyl]-6-(2-fluoromethylmorpholin-4-yl)-3H-pyrimidin-4-one] gave a pIC50 of 7.68. Compound `CC1Cc2c(O)cccc2N1C(=O)Cc1nc(N2CCOCC2)cc(=O)[nH]1` (single isomer, unassigned; (+)) [Example 9c, (+)-2-{2-[4-hydroxy-2-methyl-2,3-dihydro-1H-indol-1-yl]-2-oxoethyl}-6-(morpholin-4-yl)pyrimidin-4(3H)-one] had a pIC50 under setting [2] of 6.94. This pIC50 is 0.74 log units lower than that of the compound before.

For `CC1CN(c2cc(=O)[nH]c(CC(=O)N3CCc4c(F)cccc43)n2)CCO1` (single isomer, unassigned; (+)) [Example 10b, (+)-2-[2-(4-fluoro-2,3-dihydroindol-1-yl)-2-oxoethyl]-6-(2-methylmorpholin-4-yl)-3H-pyrimidin-4-one], the pIC50 under setting [2] is 8.10. Still for that read-out and setting: in the case of `CC1Cc2cc(F)ccc2N1C(=O)Cc1nc(N2CCOCC2)cc(=O)[nH]1` (single isomer, unassigned; (+)) [Example 13c, (+)-2-{2-[5-fluoro-2-methyl-2,3-dihydro-1H-indol-1-yl]-2-oxoethyl}-6-(morpholin-4-yl)pyrimidin-4(3H)-one] it was 8.30.

As for `CCC1CN(c2cc(=O)[nH]c(CC(=O)Nc3ccc(F)cc3)n2)CCO1` (single isomer, unassigned; (+)) [Example 15b, (+)-2-[4-(2-Ethylmorpholin-4-yl)-6-oxo-1,6-dihydropyrimidin-2-yl]-N-(4-fluorophenyl)acetamide], the pIC50 under setting [1] is 6.98. `CC1Cc2cc(F)ccc2N1C(=O)Cc1nc(N2CCOCC2)cc(=O)n1C` (single isomer, unassigned; (+)) [Example 15c, (+)-2-{2-[5-fluoro-2-methyl-2,3-dihydro-1H-indol-1-yl]-2-oxoethyl}-3-methyl-6-(morpholin-4-yl)pyrimidin-4(3H)-one] had a pIC50 under setting [2] of 7.55. Under setting [2], `CC1Cc2c(Br)cccc2N1C(=O)Cc1nc(N2CCOCC2)c(F)c(=O)[nH]1` (single isomer, unassigned; (+)) [Example 16a, (+)-2-{2-[4-bromo-2-methyl-2,3-dihydro-1H-indol-1-yl]-2-oxoethyl}-5-fluoro-6-(morpholin-4-yl)pyrimidin-4(3H)-one] gave a pIC50 of 6.32. Compared with the last compound, the pIC50 is 1.23 log units lower. Compound `CC1Cc2c(ccc(F)c2F)N1C(=O)Cc1nc(N2CCOCC2)cc(=O)[nH]1` (single isomer, unassigned; (+)) [Example 17c, (+)-2-{2-[4,5-difluoro-2-methyl-2,3-dihydro-1H-indol-1-yl]-2-oxoethyl}-6-(morpholin-4-yl)pyrimidin-4(3H)-one] had a pIC50 under setting [2] of 8.40. `CC1Cc2c(ccc(F)c2F)N1C(=O)Cc1nc(N2CCOCC2)cc(=O)n1C` (single isomer, unassigned; (+)) [Example 19c, (+)-2-{2-[4,5-difluoro-2-methyl-2,3-dihydro-1H-indol-1-yl]-2-oxoethyl}-3-methyl-6-(morpholin-4-yl)pyrimidin-4(3H)-one]: the pIC50 under setting [1] is 7.72. In turn, `CC1Cc2ccccc2N1C(=O)Cc1nc(N2CCOCC2)cc(=O)[nH]1` (single isomer, unassigned; (+)) [Example 21b, (+)-2-[2-(2-methyl-2,3-dihydroindol-1-yl)-2-oxoethyl]-6-morpholin(D8)-4-yl-3H-pyrimidin-4-one] showed a pIC50 under setting [2] of 7.57. `O=C(Cc1nc(N2CCOCC2)cc(=O)[nH]1)N1c2ccccc2CC1c1ccccc1` (single isomer, unassigned; (+)) [Example 24d, (+)-6-(morpholin-4-yl)-2-{2-oxo-2-[2-phenyl-2,3-dihydro-1H-indol-1-yl]ethyl}pyrimidin-4(3H)-one] showed a pIC50 under setting [2] of 6.69.

Under setting [2], `CC1Cc2c(Br)cccc2N1C(=O)Cc1nc(N2CCOCC2)cc(=O)[nH]1` (single isomer, unassigned; (+)) [Example 25c, (+)-2-{2-[4-bromo-2-methyl-2,3-dihydro-1H-indol-1-yl]-2-oxoethyl}-6-(morpholin-4-yl)pyrimidin-4(3H)-one] gave a pIC50 of 7.41. This pIC50 is 0.72 log units higher than that of the compound before. Still for that read-out and setting: then `O=C(Cc1nc(N2CCOC(CO)C2)cc(=O)[nH]1)N1CCc2c(Cl)cccc21` (single isomer, unassigned; (+)) [Example 26b, (+)-2-[2-(4-Chloro-2,3-dihydroindol-1-yl)-2-oxoethyl]-6-(2-hydroxymethylmorpholin-4-yl)-3H-pyrimidin-4-one], with 6.62. Turning to `O=C(Cc1nc(N2CCOCC2)cc(=O)[nH]1)N1c2ccccc2CC1c1ccc(F)cc1` (single isomer, unassigned; (+)) [Example 27d, (+)-2-{2-[2-(4-fluorophenyl)-2,3-dihydro-1H-indol-1-yl]-2-oxoethyl}-6-(morpholin-4-yl)pyrimidin-4(3H)-one], where the note is “PC3 cells, 1 to 2 h incubation, P-AKT-S473, absolute IC50, mean of two independent experiments, listed as 27”, the pIC50 is 6.36. Take `CC1Cc2c(F)cccc2N1C(=O)Cc1nc(N2CCOCC2)cc(=O)[nH]1` (single isomer, unassigned; (+)) [Example 28c, (+)-2-{2-[4-fluoro-2-methyl-2,3-dihydro-1H-indol-1-yl]-2-oxoethyl}-6-(morpholin-4-yl)pyrimidin-4(3H)-one]: the pIC50 under setting [2] was 7.01. As to `CC1CN(c2cc(=O)[nH]c(CC(=O)N3c4ccccc4C[C@@H]3C)n2)CCO1` (single isomer, unassigned; (+)) [Example 29b], under setting [1], the pIC50 is 7.62.
